From the NIST ThermoML archive (doi:10.1016/j.tca.2012.09.009)

Test: osmotic coefficient (dimensionless); mn = molality of the nth substance listed, in mol/kg
Details: 323.15 K, 101 kPa, Liquid, isopiestic method

CCCC[n+]1cccc(C)c1.O=S(=O)([N-]S(=O)(=O)C(F)(F)F)C(F)(F)F + CCC(C)O
Details | osmotic coefficient
m1 = 0.0527 | 0.735
m1 = 0.0838 | 0.623
m1 = 0.1035 | 0.581
m1 = 0.2136 | 0.45
m1 = 0.3113 | 0.379
m1 = 0.411 | 0.337
m1 = 0.5068 | 0.292
m1 = 0.7963 | 0.235
m1 = 1.217 | 0.195
m1 = 1.576 | 0.171
m1 = 2.032 | 0.149
m1 = 2.408 | 0.135
m1 = 2.799 | 0.126
m1 = 3.261 | 0.119

CCCC[n+]1cccc(C)c1.O=S(=O)([N-]S(=O)(=O)C(F)(F)F)C(F)(F)F + CCCCO
Details | osmotic coefficient
m1 = 0.0539 | 0.692
m1 = 0.082 | 0.581
m1 = 0.1023 | 0.508
m1 = 0.1892 | 0.403
m1 = 0.3045 | 0.305
m1 = 0.4112 | 0.259
m1 = 0.5115 | 0.238
m1 = 0.8265 | 0.203
m1 = 1.232 | 0.179
m1 = 1.58 | 0.155
m1 = 2.087 | 0.132
m1 = 2.466 | 0.12
m1 = 2.878 | 0.112
m1 = 3.434 | 0.102

CC[n+]1cccc(C)c1.O=S(=O)([N-]S(=O)(=O)C(F)(F)F)C(F)(F)F + CC(C)O
Details | osmotic coefficient
m1 = 0.049 | 0.951
m1 = 0.0748 | 0.834
m1 = 0.0982 | 0.752
m1 = 0.2129 | 0.605
m1 = 0.3058 | 0.529
m1 = 0.404 | 0.464
m1 = 0.5051 | 0.428
m1 = 0.8164 | 0.335
m1 = 1.211 | 0.274
m1 = 1.625 | 0.233
m1 = 2.011 | 0.21
m1 = 2.415 | 0.19
m1 = 2.847 | 0.176
m1 = 3.335 | 0.174

CCCC[n+]1cccc(C)c1.O=S(=O)([N-]S(=O)(=O)C(F)(F)F)C(F)(F)F + CC(C)O
Details | osmotic coefficient
m1 = 0.0504 | 0.909
m1 = 0.0795 | 0.805
m1 = 0.0981 | 0.729
m1 = 0.2086 | 0.596
m1 = 0.2979 | 0.536
m1 = 0.3949 | 0.498
m1 = 0.4981 | 0.454
m1 = 0.7859 | 0.384
m1 = 1.188 | 0.321
m1 = 1.583 | 0.266
m1 = 1.975 | 0.244
m1 = 2.381 | 0.233
m1 = 2.763 | 0.234
m1 = 3.323 | 0.225

CCCC[n+]1cccc(C)c1.O=S(=O)([N-]S(=O)(=O)C(F)(F)F)C(F)(F)F + CCCO
Details | osmotic coefficient
m1 = 0.0318 | 0.917
m1 = 0.0485 | 0.78
m1 = 0.0788 | 0.72
m1 = 0.2157 | 0.571
m1 = 0.3181 | 0.487
m1 = 0.417 | 0.44
m1 = 0.527 | 0.389
m1 = 0.8342 | 0.324
m1 = 1.24 | 0.274
m1 = 1.63 | 0.229
m1 = 2.053 | 0.203
m1 = 2.439 | 0.191
m1 = 2.768 | 0.182
m1 = 3.304 | 0.174

CCC[n+]1cccc(C)c1.O=S(=O)([N-]S(=O)(=O)C(F)(F)F)C(F)(F)F + CC(C)O
Details | osmotic coefficient
m1 = 0.0497 | 0.974
m1 = 0.0805 | 0.806
m1 = 0.1081 | 0.756
m1 = 0.1987 | 0.632
m1 = 0.2986 | 0.508
m1 = 0.41 | 0.415
m1 = 0.5278 | 0.379
m1 = 0.8355 | 0.334
m1 = 1.221 | 0.281
m1 = 1.623 | 0.24
m1 = 2.072 | 0.217
m1 = 2.437 | 0.206
m1 = 2.828 | 0.191
m1 = 3.326 | 0.184

CCC[n+]1cccc(C)c1.O=S(=O)([N-]S(=O)(=O)C(F)(F)F)C(F)(F)F + CCCO
Details | osmotic coefficient
m1 = 0.0279 | 0.943
m1 = 0.0456 | 0.826
m1 = 0.0782 | 0.699
m1 = 0.0966 | 0.651
m1 = 0.2052 | 0.553
m1 = 0.2936 | 0.504
m1 = 0.3902 | 0.435
m1 = 0.5073 | 0.363
m1 = 0.8376 | 0.294
m1 = 1.261 | 0.242
m1 = 1.656 | 0.217
m1 = 2.045 | 0.196
m1 = 2.425 | 0.175
m1 = 2.825 | 0.165
m1 = 3.31 | 0.159

CC[n+]1cccc(C)c1.O=S(=O)([N-]S(=O)(=O)C(F)(F)F)C(F)(F)F + CCCO
Details | osmotic coefficient
m1 = 0.0291 | 0.924
m1 = 0.0485 | 0.788
m1 = 0.0836 | 0.704
m1 = 0.104 | 0.68
m1 = 0.2111 | 0.57
m1 = 0.3124 | 0.496
m1 = 0.4076 | 0.411
m1 = 0.5148 | 0.354
m1 = 0.8269 | 0.297
m1 = 1.23 | 0.237
m1 = 1.577 | 0.211
m1 = 2.059 | 0.18
m1 = 2.455 | 0.161
m1 = 2.8 | 0.15
